From patent US8609161B2, “Conglutin-gamma as medicament and diet supplement” (Ospedale San Raffaele S.R.L., priority 2008, dated 2013)
“Also recorded” adds a separate entry of the source.

Key:
p70S6K [1] = test: p70S6K phosphorylation, western blot of stimulated C2C12 myotubes; format: cell-based, mouse; settings: Mf 400 μM; for p70S6K phosphorylation: I 100 nM, Cg 0.5 mg/ml
Method: (§1) C2C12 myoblasts were cultured at 37° C. in humidified 5% CO2 atmosphere in a growth medium (GM) containing DMEM supplemented with 20% (v/v) FBS (fetal bovine serum), 1% penicillin-streptomycin and 1% L-glutamine. Cell differentiation was initiated by placing 70% confluent cell cultures in DMEM supplemented with 1% HS (horse serum) and antibiotics (DM). To prepare myotube cultures, myoblasts were cultured in DM for 72 hours. Cells used as control (C) were switched back to GM for the duration of the experiment. Other three groups of cells were replaced in GM with the selective addition respectively of insulin (I; 100 nM), conglutin-γ (Cg; 0.5 mg/ml) and metformin (Mf; 400 μM). For each experimental condition cells were lysed at 0, 5, 10, 20 and 30 minutes after the stimuli addition.
C2C12 myofibers were homogenized in lysis buffer (50 mM Tris/HCl, pH 7.4, 150 mM NaCl, 1% Triton X-100, 1 mM sodium orthovanadate (Na3VO4), 1 mM EDTA, 1 mM PMSF, 1 mg/ml aprotinin, 1 mg/ml leupeptin, 1 mg/ml pepstatin) and shaked for 1 h at 4° C. Detergent-insoluble material was removed from the cell suspension by centrifugation at 12,000×g for 30 min. Aliquots of 30 µg supernatant proteins from the different samples were resolved by 8% (IRS1, MHC, myogenin and p-CBL), 10% (PI3K p85, AKT1, p-p70 S6K and PKC), 12% (eIF-4E, p-ERK1, p-ERK2, caveolin-3 and flottilin-2) and 15% (PHAS1) SDS-PAGE (Sodium Dodecyl Sulfate—PolyAcrylamide Gel Electrophoresis). Electrophoresed proteins were transferred onto nitrocellulose membranes using a Bio-Rad Mini Trans-Blot system. The blots were blocked with 50 mg/ml non-fat dry milk in 20 mM Tris/HCl, pH 7.4, 100 mM NaCl for 1 h at room temperature and then incubated overnight at 4° C. with respective primary antibodies in 10 mg/ml non-fat dry milk, 20 mM TRIS/HCl pH 7.4 and 100 mM NaCl and 0.3% Tween 20. After several washes the membranes were incubated with species-specific secondary antibodies. Immunoreactive bands were visualized by an enhanced chemiluminescence method (Amersham Pharmacia Biotech, Piscataway, N.J., USA).
(§2) The membrane was stripped and re-probed with an antibody to actin or tubulin to confirm equal protein loading per sample. Quantitative measurement of immunoreactive bands was performed by densitometric analysis using the Scion image software (Scion corporation, Frederick, Md., USA).

eIF4E [2] = test: eIF4E protein, western blot of stimulated C2C12 myotubes; format: cell-based, mouse; settings: for eIF4E protein concentration increase: I 100 nM
Method: as §1
(§3) C2C12 myofibers were homogenized in lysis buffer (50 mM Tris/HCl, pH 7.4, 150 mM NaCl, 1% Triton X-100, 1 mM sodium orthovanadate (Na3VO4), 1 mM EDTA, 1 mM PMSF, 1 mg/ml aprotinin, 1 mg/ml leupeptin, 1 mg/ml pepstatin) and shaked for 1 h at 4° C. Detergent-insoluble material was removed from the cell suspension by centrifugation at 12,000×g for 30 min. Aliquots of 30 µg supernatant proteins from the different samples were resolved by 8% (IRS1, MHC, myogenin and p-CBL), 10% (PI3K p85, AKT1, p-p70 S6K and PKC), 12% (eIF-4E, p-ERK1, p-ERK2, caveolin-3 and flottilin-2) and 15% (PHAS1) SDS-PAGE (Sodium Dodecyl Sulfate—PolyAcrylamide Gel Electrophoresis). Electrophoresed proteins were transferred onto nitrocellulose membranes using a Bio-Rad Mini Trans-Blot system. […]
as §2

ERK1 = test: ERK-1 phosphorylation, western blot of stimulated C2C12 myotubes; format: cell-based, mouse
Method: as §1
(§4) C2C12 myofibers were homogenized in lysis buffer (50 mM Tris/HCl, pH 7.4, 150 mM NaCl, 1% Triton X-100, 1 mM sodium orthovanadate (Na3VO4), 1 mM EDTA, 1 mM PMSF, 1 mg/ml aprotinin, 1 mg/ml leupeptin, 1 mg/ml pepstatin) and shaked for 1 h at 4° C. […]
as §2

myogenin = myogenin content, western blot of stimulated C2C12 myotubes; format: cell-based, mouse; settings: I 100 nM, Cg 0.5 mg/ml, Mf 400 μM
Method: as §1, §4, §2

flottilin-2 = flottilin-2 protein, western blot of stimulated C2C12 myotubes; format: cell-based, mouse
Method: as §1, §4, §2

IRS-1 = IRS-1 protein content, western blot of stimulated C2C12 myotubes; format: cell-based, mouse; settings: I 100 nM, Cg 0.5 mg/ml, Mf 400 μM; for IRS-1 activation: 30 min
Method: as §1, §3, §2

MHC = MHC gene expression (protein content), western blot of stimulated C2C12 myotubes; format: cell-based, mouse; settings: Cg 0.5 mg/ml
Method: as §1, §4, §2

PHAS-1 = PHAS-1 α and β bands, western blot of stimulated C2C12 myotubes; format: cell-based, mouse; settings: I 100 nM, Cg 0.5 mg/ml, Mf 400 μM
Method: as §1, §4, §2

caveolin-3 = caveolin-3 protein, western blot of stimulated C2C12 myotubes; format: cell-based, mouse; settings: 30 min / toward the end of the experiment; I 100 nM, Mf 400 μM
Method: as §1, §4, §2

Akt-1 = Akt-1 protein, western blot of stimulated C2C12 myotubes; format: cell-based, mouse
Method: as §1, §3, §2

ERK2 = test: ERK-2 phosphorylation, western blot of stimulated C2C12 myotubes; format: cell-based, mouse
Method: as §1, §3, §2

C2C12 myoblasts = test: Immunofluorescence of MHC-positive myotubes (differentiation, hypertrophy); format: cell-based, mouse; settings: vs un-stimulated differentiated muscle cells; I 100 nM, Cg 0.5 mg/ml, Mf 400 μM
Method: To prepare myotube cultures, myoblasts were cultured in DM for 72 hours. Cells used as control (C) were switched back to GM for the duration of the experiment. […] For each experimental condition cells were lysed at 0, 5, 10, 20 and 30 minutes after the stimuli addition. For immunofluorescence analysis C2C12 myoblasts differentiated as above were stimulated with insulin, conglutin-γ and metformin for 30 minutes. In differentiated cells immunostained with anti-MHC the DAPI stained nuclei per myotube, myotubes length and diameter were determined and expressed as average.

PKC = PKC protein, western blot of stimulated C2C12 myotubes; format: cell-based, mouse
Method: as §1, §4, §2

p70S6K [3] = test: p70S6k phosphorylation in gastrocnemius muscle at end of IPGTT; format: in vivo, mouse; settings: 120 min; conglutin-gamma 120 mg/kg i.p., insulin 0.5 U/kg i.p.
Method: (§5) For this protocol C57B1/6 wild type mice were utilized. Intraperitoneal glucose tolerance test (IPGTT) was performed by injecting glucose (2 g/kg body weight) i.p. in three groups of overnight-fasted mice. Thirty minutes before glucose administration, conglutin-gamma (120 mg/kg b.w.) was injected i.p. in the “Conglutin” group of mice. In the “Insulin” group of mice, insulin (0.5 U/kg b.w.) was administered i.p. at the same time of glucose injection (time 0). Blood glucose levels were determined prior (30 and 0 minutes) to injection and 30, 60, 90, and 120 min after injection. Blood samples were obtained from the tail vein and plasmas used to measure glucose concentration by the glucose reflectometer. At the end of the study gastrocnemius muscle was taken. A group of overnight-fasted mice (basal) was sacrificed before the study and gastrocnemius muscle taken. A group of animals that received saline instead of insulin or conglutin-gamma, was used as control (saline).
(§6) Collected gastrocnemius muscle was frozen in liquid nitrogen immediately after excision and then stored at −80° C. A gram of tissue with 1.5 ml of ice cold RIPA buffer was disrupted and homogenized with a dounce homogenizer, maintaining temperature at 4° C. throughout all procedures, then incubated on ice for 30 minutes. The homogenate was transferred to microcentrifuge tubes, centrifugated at 10,000×g for 10 minutes at 4° C. […]

GSK-3 = GSK-3 in gastrocnemius muscle at end of IPGTT; format: in vivo, mouse; settings: 120 min; conglutin-gamma 120 mg/kg i.p., insulin 0.5 U/kg i.p.
Method: as §5, §6

p85-PI3 kinase = test: PI3K-p85 subunit, western blot of stimulated C2C12 myotubes; format: cell-based, mouse; settings: I 100 nM, Cg 0.5 mg/ml
Method: as §1, §4, §2

AKT1 = AKT1 protein expression in gastrocnemius muscle at end of IPGTT; format: in vivo, mouse; settings: 120 min, with respect to the untreated muscle; conglutin-gamma 120 mg/kg i.p., insulin 0.5 U/kg i.p.
Method: as §5, §6

Cbl = Cbl phosphorylation, western blot of stimulated C2C12 myotubes; format: cell-based, mouse; settings: 30 min; I 100 nM
Method: as §1, §4, §2

[4] = Intraperitoneal glucose tolerance test (IPGTT), blood glucose; format: in vivo, C57B1/6 wild type mice
Method: as §5

eIF4E [5] = test: eIF4E protein in gastrocnemius muscle at end of IPGTT; format: in vivo, mouse; settings: 120 min; conglutin-gamma 120 mg/kg i.p., insulin 0.5 U/kg i.p.
Method: as §5, §6

ERK1 and ERK2 = ERK1 and ERK2 phosphorylation in gastrocnemius muscle at end of IPGTT; format: in vivo, mouse; settings: 120 min; conglutin-gamma 120 mg/kg i.p., insulin 0.5 U/kg i.p.
Method: as §5, §6

[6] = test system: insulin receptor beta (IR-beta); test: IR-beta protein content in gastrocnemius muscle at end of IPGTT; format: in vivo, mouse; settings: 120 min, with respect to the basal and saline group; conglutin-gamma 120 mg/kg i.p., insulin 0.5 U/kg i.p.
Method: as §5, §6

[7] = Mf 400 μM vs insulin and conglutin-γ

Molecule: CN(C)C(=N)N=C(N)N [metformin, Metformin]
- p70S6K phosphorylation (p70S6K [1]; 30 min): ~32%
- Emax (p70S6K [1]; Mus musculus, C2C12, 10 min, within 10 min, read-out: p70S6K phosphorylation (maximal effect)): ~46%
- eIF4E activation, in words (eIF4E [2]; Mf 400 μM): not able to exert an activation
- ERK1 activation, in words (ERK1; [7]): higher activation
- myogenin activation (myogenin): did not exert any effect
- flottilin-2 activation, in words (flottilin-2; Mf 400 μM): did not exert any flottilin-2 activation
- IRS-1 activation (IRS-1): ~76%
- MHC gene expression, in words (MHC; with respect to un-stimulated differentiated muscle cells, Mf 400 μM): unable to produce the same effect; also recorded: not able to induce the same gene expression
- density of PHAS-1 α and β bands in respect to the control (PHAS-1): more increased
- caveolin-3 protein concentration increase (caveolin-3): above 70%
- Emax (Akt-1; Mus musculus, C2C12, 5 min, 5 min, Mf 400 μM, read-out: Akt-1 protein concentration change (maximal effect)): ~20%
- ERK2 activation, in words (ERK2; [7]): higher activation
- fusion index (C2C12 myoblasts): gradually increase
- myotubes diameter (C2C12 myoblasts): gradually increase
- myotubes length (C2C12 myoblasts): gradually increase
- number of nuclei present in MHC positive myotubes (C2C12 myoblasts): gradually increase
- PKC protein concentration stimulation, in words (PKC; [7]): more than the other two stimuli

Molecule: insulin: primary hormone responsible for proteosynthesis control and glucose homeostasis; comparator stimulus
- p70S6k phosphorylation in muscle (p70S6K [3]): increased
- GSK-3 phosphorylation in muscle (GSK-3): increased
- p70S6K phosphorylation (p70S6K [1]; 30 min): ~94%
- p70S6K phosphorylation (p70S6K [1]; within 5 min): ~40%
- p85-PI3 kinase activation (p85-PI3 kinase; 30 min (end of the experiment)): ~56%
- p85-PI3 kinase activation (p85-PI3 kinase; within 5 min): ~62%
- eIF4E protein concentration increase (eIF4E [2]; 30 min (end of the experiment), Cg 0.5 mg/ml): ~30%
- eIF4E protein concentration increase (eIF4E [2]; persistent from 5 to 20 min): ~45%
- AKT1 expression in muscle (AKT1): able to increase AKT1 expression
- ERK1 activation (peak) (ERK1; 20 min, I 100 nM, Cg 0.5 mg/ml): ~27%
- myogenin activation (myogenin): overlapping
- Cbl phosphorylation (maximal) (Cbl): ~56%
- flottilin-2 protein concentration increase (peak) (flottilin-2; 10 min, I 100 nM, Cg 0.5 mg/ml): ~60%
- IRS-1 protein content stimulation / activation (IRS-1; 20 min): ~32%
- IRS-1 activation (IRS-1): ~35%
- blood glucose concentration at the end of the study ([4]; 120 min after glucose 2 g/kg i.p., conglutin-gamma 120 mg/kg i.p. at -30 min, insulin 0.5 U/kg i.p. at time 0): ~120 mg/dL
- course of blood glucose decrease during IPGTT ([4]; glucose 2 g/kg i.p., conglutin-gamma 120 mg/kg i.p., insulin 0.5 U/kg i.p.): decreased rapidly
- MHC expression increase (MHC; with respect to the un-stimulated differentiated muscle cells, I 100 nM): ~600%
- density of PHAS-1 α and β bands in respect to the control (PHAS-1): more increased
- caveolin-3 protein concentration increase (caveolin-3): ~34%
- Akt-1 protein concentration change (Akt-1; 20 min, I 100 nM, Cg 0.5 mg/ml, Mf 400 μM): ~13%
- AKT-1 phosphorylation, in words (Akt-1; any time 5-30 min, I 100 nM, Cg 0.5 mg/ml): modest stimulation above basal at any time
- eIF4E activation in muscle (eIF4E [5]): able to increment
- ERK2 activation (ERK2; 10 min, I 100 nM): ~20%
- ERK2 activation (maximum) (ERK2; 30 min, I 100 nM, Cg 0.5 mg/ml): ~28%
- ERKs phosphorylation in muscle (ERK1 and ERK2): able to increment
- fusion index (C2C12 myoblasts): gradually increase
- myotubes diameter (C2C12 myoblasts): gradually increase
- myotubes length (C2C12 myoblasts): gradually increase
- number of nuclei present in MHC positive myotubes (C2C12 myoblasts): gradually increase
- PKC concentration increase (PKC; 20 min, I 100 nM, Cg 0.5 mg/ml): ~32%
- IR-beta protein content in muscle [6]: trend towards IR-beta protein content increment
